In US20240408066A1, “Treatment Of Conditions Associated With Stress Granule Formation” (priority 2022, published 2024):

How the values were obtained:
[1] = target: T1, recombinant mouse TIA1-ECFP+TIA1-EYFP (Mus musculus, UniProt P52912); assay: In vitro FRET assay of TIA1 multimerization; type: binding; conditions: TIA1-ECFP+TIA1-EYFP 10 ug/ml each; test compound 0-40 μM; FIG. 4
T1 construct: Full-length mouse TIA1 cDNA was generated from standard RT-PCR from total mouse brain RNA; 6xHis (N); made in house; host or cells: E. coli BL21 AI
T1 sequence (P52912 1-386) 1: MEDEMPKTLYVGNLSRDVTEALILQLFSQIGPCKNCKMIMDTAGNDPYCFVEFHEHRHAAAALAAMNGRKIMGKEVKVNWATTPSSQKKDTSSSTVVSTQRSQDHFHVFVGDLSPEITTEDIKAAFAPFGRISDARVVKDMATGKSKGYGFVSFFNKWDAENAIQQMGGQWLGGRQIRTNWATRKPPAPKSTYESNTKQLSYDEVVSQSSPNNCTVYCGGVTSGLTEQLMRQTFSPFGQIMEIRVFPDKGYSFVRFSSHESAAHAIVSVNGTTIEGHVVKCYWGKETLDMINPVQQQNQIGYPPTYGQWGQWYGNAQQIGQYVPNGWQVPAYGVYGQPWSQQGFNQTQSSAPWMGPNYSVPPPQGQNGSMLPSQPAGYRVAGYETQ
T1 sequence (P52912 1-386) 2: T1 sequence (P52912 1-386) 1
Text: The assay that takes advantage of a phenomenon involving the transfer of energy between two compatible fluorescent proteins. In particular, the fluorescent proteins CFP and YFP (cyan fluorescent protein and yellow fluorescent protein, respectively) emit fluorescent light of characteristic wavelengths when excited by laser radiation. CFP or YFP was tethered to a TIA1 protein and the hybrid proteins were mixed together. Subsequently, if TIA1 self-interacts (dimerizes), the tethered CFP and YFP proteins are brought into close proximity to one another. When this occurs, laser excitation of CFP leads to a release of energy that is absorbed by YFP, which can be detected in the assay. This assay can be employed in the presence of other agents, such as small molecule compounds, to determine whether their presence has any effect on dimerization of TIA1. This screen was employed to assay compounds in a chemical library in order to identify compounds that effect TIA1 binding and dimerization or multimerization.
One way to establish that test compounds bind recombinant TIA1 is to perform a Förster resonance energy transfer (FRET) experiment. Binding of test compound to monomeric protein is inferred by a change in FRET signal upon ligand-induced multimerization of suitably tagged (c.g.,-ECFP and -EYFP) fusion proteins. In other words, not only must the compound bind to TIA1-ECFP and TIA1-EYFP, it must also induce a change in multimeric state such that energy can be transferred between the ECFP and EYFP tags. […]
Plasmids encoding mouse TIA1-ECFP and TIA1-EYFP were generated by standard PCR-based cloning techniques. […] Samples are read in real-time with a fluorescence microplate reader. To measure donor FRET, samples are excited at 430+30 nm, and […] is measured at 480+20 nm. Compounds that drive multimerization of the fusion proteins cause proximal localization of the ECFP and EYFP moieties, leading to a reduction in ECFP fluorescence with ECFP excitation due to energy transfer to EYFP. […]

[2] = target: T2, recombinant mouse TIA1 with human recombinant tau (0N4R isoform) (Mus musculus, UniProt P52912); assay: TIA1-induced oligomerization of tau protein in vitro (oTau immunoblotting); type: biochemical; conditions: fixed ratio of TIA1:tau; as a function of drug concentration and time (0.5-2 h); FIG. 5 right panels
T2 sequence (P52912 1-386): T1 sequence (P52912 1-386) 1
Description: Oligomeric tau is the most pathological configuration of the protein.
Purified full-length recombinant mouse TIA1 protein was generated from standard cloning methods followed by standard protocols for bacterial expression and purification. Recombinant TIA1 was incubated with commercially available human recombinant tau (ON4R isoform) obtained from R&D Systems at the indicated molar ratios/concentrations. After indicated incubation times, reactions were spotted onto nitrocellulose membrane followed by immunoblotting with primary antibodies that recognize oligomeric tau (oTau) or TIA1. Fluorescently labeled secondary antibody staining against indicated primary antibodies was followed by quantitative image analysis using a Li-COR Odyssey system. Experiment A evaluates the impact of TIA1:tau molar ratio on tau oligomerization and whether OTX0049 at a single test concentration interferes with TIA1-dependent tau oligomerization (FIG. 5, left panels). The experiment represented in the right panels measure the dose-response of OTX0049 and OTX1017 (Formula I in claims) inhibition of TIA1-dependent tau oligomerization at a fixed ratio of recombinant TIA1:tau (FIG. 5, right panels).

rTg4510 transgenic mice = assay: Cellular pathology in rTg4510 mouse model (GFAP and NeuN immunohistochemistry); type: in vivo; conditions: 5 mg/kg i.p. once per week for 7 weeks beginning at 77 d; FIG. 7
Description: rTg4510 transgenic mice are a well-established model of tauopathy based on expression of a human tau mutant (P301L). […] Given that these cellular pathological events are driven by tau, TIA1 antagonists compounds should limit tau-dependent pathology.
rTg4510 transgenic mice were treated with DMSO vehicle or OTX1017 (Formula I in claims 5 mg/kg i.p.) once per week for 7 weeks beginning at 77 d. Hippocampal slices were then prepared for conventional immunohistochemistry with GFAP (neuroinflammation marker) and NeuN (neuronal marker), followed by quantitation using NIH ImageJ. GFAP signal was quantitated in cortex (ctx) (white arrows). NeuN staining was used to calculate average thickness of the CA1 pyramidal cell layer for each slice.

PS19 transgenic mice = assay: Tau oligomerization in vivo in PS19 mice (hippocampal dot blots, oligomeric tau-specific antibody); design: species or system mouse; conditions: 10 mg/kg i.p. once per week for 6 weeks; FIG. 10
Description: FIG. 10 illustrates the inhibition of tau oligomerization in vivo by OTX1017. Mice were treated with 10 mg/kg OTX1017 i.p., once per week, for 6 weeks, hippocampal extracts were prepared, and dot blots were performed with an oligomeric tau-specific antibody.

CCOC(=O)c1ccc(-n2sc3ccccc3c2=O)cc1 [Formula III]
multimerization of TIA1 (FRET signal) [1]: demonstrate FRET signals indicative of TIA1 multimerization

Cc1ccc(C)c(-n2[se]c3cc(F)ccc3c2=O)c1 [OTX1017]
multimerization of TIA1 (FRET signal) [1]: Induce Multimerization of Recombinant Mouse TIA1
TIA1-dependent tau oligomerization, dose-response [2]: drug-dependent reduction of TIA1-dependent tau oligomerization
GFAP staining in the cortex (neuroinflammation) (rTg4510 transgenic mice): ameliorated
thickness of the CA1 pyramidal layer neurons (NeuN staining) (rTg4510 transgenic mice): ameliorated by drug treatment
oligomeric tau in the hippocampus (PS19 transgenic mice): significantly reduces the presence of oligomeric tau in the hippocampus

Cc1ccc(C)c(-n2[se]c3cncnc3c2=O)c1 [OTX1018]
multimerization of TIA1 (FRET signal) [1]: Induce Multimerization of Recombinant Mouse TIA1
